Measured values taken from patent publication US20110092476A1, “Bicycloheteroaryl compounds as P2X7 modulators and uses thereof” (Renovis, Inc., priority 2006, published 2011).
Like-named read-outs stand apart in the source and are kept apart here.

Biological target: T1, P2X7 receptor (Homo sapiens, UniProt Q99572)
T1 construct: host or cells: THP-1 cells differentiated with LPS and IFN-γ
T1 sequence (Q99572 1-595): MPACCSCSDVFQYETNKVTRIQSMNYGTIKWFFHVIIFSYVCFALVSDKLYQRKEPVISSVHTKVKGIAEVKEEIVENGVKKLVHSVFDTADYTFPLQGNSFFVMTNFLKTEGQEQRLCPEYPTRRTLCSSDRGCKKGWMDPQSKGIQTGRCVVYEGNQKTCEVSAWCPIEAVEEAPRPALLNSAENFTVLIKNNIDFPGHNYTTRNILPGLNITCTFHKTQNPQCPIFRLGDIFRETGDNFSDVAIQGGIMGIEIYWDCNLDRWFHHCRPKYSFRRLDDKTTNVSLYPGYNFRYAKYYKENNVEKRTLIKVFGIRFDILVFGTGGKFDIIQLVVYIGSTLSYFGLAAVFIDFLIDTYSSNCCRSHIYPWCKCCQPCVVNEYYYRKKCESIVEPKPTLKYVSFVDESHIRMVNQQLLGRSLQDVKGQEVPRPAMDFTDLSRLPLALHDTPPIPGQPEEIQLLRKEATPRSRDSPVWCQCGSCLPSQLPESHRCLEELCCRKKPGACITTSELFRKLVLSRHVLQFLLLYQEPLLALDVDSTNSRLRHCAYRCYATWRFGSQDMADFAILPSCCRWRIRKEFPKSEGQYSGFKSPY
Assay: IL-1β release assay in differentiated THP-1 cells stimulated with BzATP (Example 9)
Type: cell-based
Settings: BzATP 250 uM; for inhibition at 0.3 µM / inhibition at 0.1 µM: differentiated THP-1 cells, read-out: IL-1β % Inhib. @ 0.3 or 0.1 uM; for IC50: THP-1 cells, IL-1β by ELISA
Method: THP-1 cells (ATCC Cat #285-IF-100) are plated in 96 well plates at a concentration of 200,000 cells per well and allowed to differentiate in RPMI-1640 media (ATCC Cat #30-2001) containing 10% FBS, 100 IU/mL penicillin, 100 ug/mL streptomycin, 100 ng/mL LPS and 100 ng/mL IFN-γ for 16 hours. Following differentiation, the cells are treated for an additional 2 hours in RPMI-1640 media containing 100 IU/mL penicillin, 100 ug/mL streptomycin and fresh LPS at 100 ng/mL. The cells are then pretreated for 30 minutes with the compound of interest at the appropriate concentration in RPMI media containing 100 IU/mL penicillin, 100 ug/mL streptomycin. Following the pretreatment 2′,3′-O-(4-benzoylbenzoyl)-adenosine 5′-triphosphate (Sigma Aldrich Cat #B6396) is added to a final concentration of 250 uM and the cells are incubated for an additional 45 minutes. 30 uL of cell supernatant is then collected and IL-1β levels determined via ELISA (R&D systems Cat. #HSLB50) according to manufacturer's recommendations using the Tecan Safire plate reader. Background adjusted IL-1β levels of drug treated and non-treated cells are used to calculate the percent inhibition.
The compounds set forth in Table 1 were tested for activity in a cellular model as described herein. Specifically, cells were pretreated with differing amounts of the compound under test and released IL-1β determined as in Example 9, above. Measurements were made and IC50 values, presented in Table 2, below, were determined by fitting the data to a four parameter logistic equation using GraphPad Prism software (GraphPad Software, Inc). The equation may be expressed by the following formula:
Y=Bottom+(Top−Bottom)/(1+10̂((Log EC50−X)*HillSlope))
Where X is the logarithm of concentration, Y is the response and Y starts at Bottom and goes to Top with a sigmoid shape.

C[C@H](C(N)=O)n1ccc2c(NC(=O)c3cccc4ncccc34)cccc2c1=O [Compound 272]
inhibition at 0.3 µM (0.3 μM compound, "+" symbols): 0 to 25%

COc1ccc(CCC(=O)Nc2cccc3c(=O)n(C(C)CO)ccc23)cc1 (centres unmarked) [Compound 105]
inhibition at 0.1 µM (0.1 μM compound (symbols *)): 0 to 25%

COc1cccc(CCC(=O)Nc2cccc3c(=O)n(CC(C)(C)O)ccc23)c1 [Compound 189]
inhibition at 0.1 µM (0.1 μM compound (symbols *)): 0 to 25%

CC(C)(O)Cn1ccc2c(NC(=O)Cc3ccccc3F)cccc2c1=O [Compound 207]
inhibition at 0.1 µM (0.1 μM compound, "*" symbols): 0 to 25%

O=C(Cc1ccccc1)Nc1cccc2c(=O)n(CCO)ccc12 [Compound 76]
inhibition at 0.3 µM (0.3 μM compound (symbols +)): 0 to 25%

C[C@H](C(N)=O)n1ccc2c(NC(=O)Cc3ccc(Cl)c(Cl)c3)cccc2c1=O [Compound 239]
inhibition at 0.3 µM (0.3 μM compound, "+" symbols): > 76%

O=C(Cc1ccc(Cl)c(C(F)(F)F)c1)Nc1cccc2c(=O)n(CC3CCNCC3)ccc12 [Compound 257, 2-(4-Chloro-3-trifluoromethyl-phenyl)-N-(1-oxo-2-piperidin-4-ylmethyl-1,2-dihydro-isoquinolin-5-yl)-acetamide]
inhibition at 0.3 µM (0.3 μM compound, "+" symbols): > 76%

CS(=O)(=O)c1ccc(CCC(=O)Nc2cccc3c(=O)n(CCO)ccc23)cc1 [Compound 71]
inhibition at 0.3 µM (0.3 μM compound (symbols +)): 0 to 25%

COc1c(C)cc(C(=O)Nc2cccc3c(=O)n(CC(C)O)ccc23)cc1C (centres unmarked) [Compound 167]
inhibition at 0.1 µM (0.1 μM compound (symbols *)): 0 to 25%

CC(CO)n1ccc2c(NC(=O)c3ccc4c(c3)OCCCO4)cccc2c1=O (centres unmarked) [Compound 117]
inhibition at 0.1 µM (0.1 μM compound (symbols *)): 0 to 25%

Cc1cc(C)cc(CC(=O)Nc2cccc3c(=O)n(CC(C)O)ccc23)c1 (centres unmarked) [Compound 173]
inhibition at 0.1 µM (0.1 μM compound (symbols *)): 26 to 50%

Cc1cc(C)c(CC(=O)Nc2cccc3c(=O)n(CC(C)(C)O)ccc23)c(C)c1 [Compound 190]
inhibition at 0.1 µM (0.1 μM compound (symbols *)): 0 to 25%

CC(C)(O)Cn1ccc2c(NC(=O)c3ccccc3Cl)cccc2c1=O [Compound 197]
inhibition at 0.1 µM (0.1 μM compound, "*" symbols): 51 to 75%

CC(C)C[C@H](CO)n1ccc2c(NC(=O)Cc3ccc(Cl)c(C(F)(F)F)c3)cccc2c1=O [Compound 280]
inhibition at 0.3 µM (0.3 μM compound, "+" symbols): > 76%

Cc1ccc(C(=O)Nc2cccc3c(=O)n(C(C)CO)ccc23)c(C)c1 (centres unmarked) [Compound 99]
inhibition at 0.1 µM (0.1 μM compound (symbols *)): 0 to 25%

CC(C)[C@H](CO)n1ccc2c(NC(=O)[C@H](C)c3ccc(Cl)cc3)cccc2c1=O [Compound 273, (R)-2-(4-Chloro-phenyl)-N—[(R)-2-(1-hydroxymethyl-2-methyl-propyl)-1-oxo-1,2-dihydro-isoquinolin-5-yl]-propionamide]
inhibition at 0.3 µM (0.3 μM compound, "+" symbols): > 76%

C[C@@H](C(N)=O)n1ccc2c(NC(=O)Cc3ccc(Cl)c(F)c3)cccc2c1=O [Compound 352]
inhibition at 0.3 µM (0.3 μM compound, "+" symbols): > 76%

Cc1ccccc1CC(=O)Nc1cccc2c(=O)n(CC(C)(C)O)ccc12 [Compound 211]
inhibition at 0.1 µM (0.1 μM compound, "*" symbols): 0 to 25%

Cc1c(Cl)cccc1C(=O)Nc1cccc2c(=O)n(CC(C)(C)O)ccc12 [Compound 225]
inhibition at 0.1 µM (0.1 μM compound, "*" symbols): 0 to 25%

Cc1ccc(CCC(=O)Nc2cccc3c(=O)n(CC(C)O)ccc23)c(C)c1 (centres unmarked) [Compound 184]
inhibition at 0.1 µM (0.1 μM compound (symbols *)): 0 to 25%

COc1ccc(CC(=O)Nc2cccc3c(=O)n(C(C)CO)ccc23)cc1OC (centres unmarked) [Compound 109]
inhibition at 0.1 µM (0.1 μM compound (symbols *)): 0 to 25%

COc1ccc(C(=O)Nc2cccc3c(=O)n(C(C)CO)ccc23)cc1Cl (centres unmarked) [Compound 92]
inhibition at 0.1 µM (0.1 μM compound (symbols *)): 0 to 25%

CC(C)(O)Cn1ccc2c(NC(=O)c3cc4ccccc4o3)cccc2c1=O [Compound 217]
inhibition at 0.1 µM (0.1 μM compound, "*" symbols): 0 to 25%

C[C@H](C(N)=O)n1ccc2c(NC(=O)Cc3ccccn3)cccc2c1=O [Compound 309]
inhibition at 0.3 µM (0.3 μM compound, "+" symbols): 0 to 25%

C[C@H](CO)n1ccc2c(NC(=O)Cc3ccc(C(F)(F)F)cc3F)c(Cl)ccc2c1=O [Compound 378]
inhibition at 0.3 µM (0.3 μM compound, "+" symbols): > 76%

O=C(Nc1cccc2c(=O)n(CC3(O)CCCCC3)ccc12)c1ccc(-c2ccccc2)o1 [Compound 9]
inhibition at 0.1 µM (0.1 μM compound (symbols *)): 0 to 25%

Cc1cc(Cl)ccc1C(=O)Nc1cccc2c(=O)n(CC(C)O)ccc12 (centres unmarked) [Compound 169]
inhibition at 0.1 µM (0.1 μM compound (symbols *)): 0 to 25%

Cc1ccccc1CC(=O)Nc1cccc2c(=O)n(CC(C)O)ccc12 (centres unmarked) [Compound 157]
inhibition at 0.1 µM (0.1 μM compound (symbols *)): 0 to 25%

O=C(CCc1cccc(Cl)c1)Nc1cccc2c(=O)n(CC3(O)CCCCC3)ccc12 [Compound 58]
inhibition at 0.3 µM (0.3 μM compound (symbols +)): 26 to 50%

C[C@H](C(=O)Nc1cccc2c(=O)n([C@@H](C(N)=O)c3ccccc3)ccc12)c1ccc(Cl)cc1 [Compound 279, (S)—N-[2-((R)-Carbamoyl-phenyl-methyl)-1-oxo-1,2-dihydro-isoquinolin-5-yl]-2-(4-chloro-phenyl)-propionamide]
inhibition at 0.3 µM (0.3 μM compound, "+" symbols): > 76%

O=C(Cc1ccc(F)c(Cl)c1)Nc1cccc2c(=O)n(CCO)ccc12 [Compound 341]
inhibition at 0.3 µM (0.3 μM compound, "+" symbols): > 76%

C[C@@H](C(N)=O)n1ccc2c(NC(=O)Cc3ccc(Cl)nc3)cccc2c1=O [Compound 310]
inhibition at 0.3 µM (0.3 μM compound, "+" symbols): 0 to 25%

COc1cc(CC(=O)Nc2cccc3c(=O)n(C(C)CO)ccc23)cc(OC)c1 (centres unmarked) [Compound 114]
inhibition at 0.1 µM (0.1 μM compound (symbols *)): 0 to 25%

CC(C)(CO)n1ccc2c(NC(=O)Cc3ccc(F)c(Cl)c3)cccc2c1=O [Compound 372]
inhibition at 0.3 µM (0.3 μM compound, "+" symbols): 0 to 25%

CC(O)Cn1ccc2c(NC(=O)c3ccc(C(C)(C)C)cc3)cccc2c1=O (centres unmarked) [Compound 147]
inhibition at 0.1 µM (0.1 μM compound (symbols *)): 0 to 25%

Cc1ccc(C(=O)Nc2cccc3c(=O)n(CC(C)(C)O)ccc23)c(C)c1 [Compound 201]
inhibition at 0.1 µM (0.1 μM compound, "*" symbols): 0 to 25%

C[C@H](C(N)=O)n1ccc2c(NC(=O)Cc3ccc(Cl)nc3)cccc2c1=O [Compound 312]
inhibition at 0.3 µM (0.3 μM compound, "+" symbols): 0 to 25%

COc1cc(CC(=O)Nc2cccc3c(=O)n(CC4(O)CCCCC4)ccc23)cc(OC)c1 [Compound 39]
inhibition at 0.3 µM (0.3 μM compound (symbols +)): 0 to 25%

CC(C(=O)Nc1cccc2c(=O)n(CC3(O)CCCCC3)ccc12)c1ccccc1 (centres unmarked) [Compound 24]
inhibition at 0.1 µM (0.1 μM compound (symbols *)): 26 to 50%

Cc1ccc(CC(=O)Nc2cccc3c(=O)n(CC(C)O)ccc23)cc1 (centres unmarked) [Compound 162]
inhibition at 0.1 µM (0.1 μM compound (symbols *)): 0 to 25%

Cc1cccc(CCC(=O)Nc2cccc3c(=O)n(CC(C)O)ccc23)c1 (centres unmarked) [Compound 180]
inhibition at 0.1 µM (0.1 μM compound (symbols *)): 0 to 25%

COc1ccc(C(=O)Nc2cccc3c(=O)n(CC4(O)CCCCC4)ccc23)c(C)c1 [Compound 56]
inhibition at 0.3 µM (0.3 μM compound (symbols +)): 0 to 25%

COc1cccc(CCC(=O)Nc2cccc3c(=O)n(CC(C)O)ccc23)c1 (centres unmarked) [Compound 128]
inhibition at 0.1 µM (0.1 μM compound (symbols *)): 0 to 25%

COc1cc(OC)cc(C(=O)Nc2cccc3c(=O)n(CC4(O)CCCCC4)ccc23)c1 [Compound 19]
inhibition at 0.1 µM (0.1 μM compound (symbols *)): 0 to 25%

CC(C)[C@H](CO)n1ccc2c(NC(=O)[C@@H](C)c3ccc(Cl)cc3)cccc2c1=O [Compound 274]
inhibition at 0.3 µM (0.3 μM compound, "+" symbols): > 76%
IC50: 14.5 nM

COc1cccc(CC(=O)Nc2cccc3c(=O)n(CCO)ccc23)c1 [Compound 75]
inhibition at 0.3 µM (0.3 μM compound (symbols +)): 0 to 25%

C[C@H](C(=O)Nc1cccc2c(=O)n([C@H](C)C(=O)O)ccc12)c1ccc(Cl)cc1 [Compound 322, (R)-2-{5-[(S)-2-(4-Chloro-phenyl)-propionylamino]-1-oxo-1H-isoquinolin-2-yl}-propionic acid]
inhibition at 0.3 µM (0.3 μM compound, "+" symbols): 26 to 50%

COc1ccc(CC(=O)Nc2cccc3c(=O)n(CC(C)(C)O)ccc23)cc1 [Compound 214]
inhibition at 0.1 µM (0.1 μM compound, "*" symbols): 0 to 25%

CC(=O)NCCn1ccc2c(NC(=O)Cc3ccc(Cl)c(C(F)(F)F)c3)cccc2c1=O [Compound 391]
inhibition at 0.3 µM (0.3 μM compound, "+" symbols): > 76%
IC50: 0.39 nM

COc1ccc(OC)c(CC(=O)Nc2cccc3c(=O)n(CC4(O)CCCCC4)ccc23)c1 [Compound 30]
inhibition at 0.3 µM (0.3 μM compound (symbols +)): 0 to 25%

COc1ccc(CC(=O)Nc2cccc3c(=O)n(CC(C)O)ccc23)cc1C (centres unmarked) [Compound 177]
inhibition at 0.1 µM (0.1 μM compound (symbols *)): 0 to 25%
